How the values were obtained:
[1] = Liver enzymes after gefitinib; conditions: mouse, in vivo
[2] = Gefitinib metabolites M4 and M28 in feces of humanized (Hu-PIRF) and control mice (mass spectrometry); assay type: in vivo, human liver chimeric mouse
Experimental: Feces samples were weighted and homogenized in water (100 mg feces in 1,000 μl of H2O). Subsequently, 300 μl of methanol was added to 100 μl of the resulting mixture, followed by centrifugation at 15,000 g for 20 min. The supernatant was transferred to a new Eppendorf vial for a second centrifugation (15,000 g for 20 min). The final concentration of agomelatine is 2 μM. Each supernatant was transferred to an auto sampler vial for analysis (described below).
The column temperature was maintained at 40° C. The flow rate of was 0.3 mL/min with a gradient ranging from 2% to 98% aqueous acetonitrile containing 0.1% formic acid in a 15-min run. Quadrupole time of flight mass spectrometry (QTOFMS) was operated in positive mode with electrospray ionization. Ultra-highly pure nitrogen was applied as the drying gas (12 L/min) and the collision gas. The drying gas temperature was set at 325° C. and nebulizer pressure was kept at 35 psi. The capillary voltages were set at 3.5 kV. During mass spectrometry, real time mass correction and accurate mass were achieved by continuously measuring standard reference ions at m/z 121.0508, 922.0098 in the positive mode. Mass chromatograms and mass spectra were acquired by MassHunter Workstation data Acquisition software (Agilent, Santa Clara, Calif.) in centroid and profile formats from m/z 50 to 1000. The acquisition rate was set as 1.5 spectra per second. […] Meanwhile, the quality control samples were performed every 10 samples in the process of the sample running. Due to the authentic compounds of metabolites not available, the metabolite identification was based on their exact mass and MS/MS fragments. The chromatograms and relative abundance of metabolite were performed on Qualitative Analysis software (Agilent, Santa Clara, Calif.). The relative abundance was evaluated based on integrated peak area of each metabolite.

[3] = Troglitazone phase II metabolites in livers of humanized and non-humanized mice with and without Por and Ugdh deletion; assay type: in vivo, mouse; conditions: liver
Experimental: Percentage of liver glucuronidated and sulfated metabolites detected in humanized livers 2 hours after i.p injection of troglitazone (600 mg/kg). FIG. 25A. Humanized FRG mice. FIG. 25B. Humanized FRG mice after murine Por and Ugdh deletion. FIG. 25C. Non-humanized FRG mice. FIG. 25D. Non-humanized FRG mice with Por and Ugdh genes deleted. Sulfate metabolites of troglitazone in red and glucuronide conjugates in blue.
Troglitazone metabolites (two hours after i.p. injection of 600 mg/kg troglitazone) in the livers of humanized and non-humanized FRG mice with and without Por and Ugdh deletion was analyzed.

| Compound | elevation of liver enzymes [1] | level of metabolite M4 in feces ([2]; murine Por-deficient Hu-PIRF mice versus Por-expressing humanized and non-humanized control mice) | level of human-specific metabolite M28 in feces ([2]; murine Por-deficient Hu-PIRF mice versus control groups) | glucuronide conjugates in non-humanized livers of control mice versus humans or humanized mice ([3]; two hours after i.p. injection of 600 mg/kg) | glucuronide conjugates upon deletion of ugdh and por ([3]; non-humanized and humanized mice, two hours after i.p. 600 mg/kg) |
| --- | --- | --- | --- | --- | --- |
| COc1cc2ncnc(Nc3ccc(F)c(Cl)c3)c2cc1OCCCN1CCOCC1 [gefitinib] | did not cause any elevation of liver enzymes | highest level | highest level | – | – |
| Cc1c(C)c2c(c(C)c1O)CCC(C)(COc1ccc(CC3SC(=O)NC3=O)cc1)O2 (centres unmarked) [troglitazone] | – | – | – | much higher amounts | reduced significantly |

Source: patent publication US11716974B2, “Human liver chimeric mouse with deficient P450 oxidoreductase” (Baylor College of Medicine, priority 2016, dated 2023)
